This is an account of results in patent US20230227427A1, “IL-17A MODULATORS” (SANOFI, priority 2010, published 2023).

The target of this assay is T1, human recombinant IL-17A (Homo sapiens, UniProt Q16552).
T1 construct: purchased R&D Systems 7955-IL/CF
T1 sequence (Q16552 24-155): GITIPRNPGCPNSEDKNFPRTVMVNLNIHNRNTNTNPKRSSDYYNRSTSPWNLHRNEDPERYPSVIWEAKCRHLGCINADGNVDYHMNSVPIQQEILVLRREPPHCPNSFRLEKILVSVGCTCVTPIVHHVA
As to the kind of experiment: IL-17A AlphaLISA assay (block binding of IL-17A to its receptor IL-17RA). The following applies: for IC50: read-out: AlphaLISA pIC50 (converted). The method, boiled down: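 Compounds pre-incubated 24 h at RT (30 min where flagged) with human IL-17A (7.5 nM stock) before IL-17RA/Fc (5 nM stock), 90 min. Read by AlphaLISA via anti-Fc acceptor and biotin anti-IL-17A/streptavidin donor beads, 680/615 nm. 4-parameter fit; DMSO and 6 μM reference inhibitor as controls; pIC50.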
In general terms: In Alpha technology, singlet oxygen from a donor bead excites a nearby acceptor bead.

Setting [1] is: compounds pre-incubated with the IL-17A for 30 min (indicated by * in Table A).
Setting [2] is: compounds pre-incubated with the IL-17A for 24 h at room temperature.

Read-outs that look alike come from different tables or passages of the source.

As for `CCn1nncc1C(=O)N[C@H](C(=O)Nc1ccc(-c2c(C)cnn2C)cn1)C1CCCCCC1` [Example 141, (S)—N-(1-Cycloheptyl-2-((5-(1,4-dimethyl-1H-pyrazol-5-yl)pyridin-2-yl)amino)-2-oxoethyl)-1-ethyl-1H-1,2,3-triazole-5-carboxamide], the IC50 under setting [1] is 0.158 µM.

For `CCc1nocc1C(=O)N[C@H](C(=O)Nc1ccc(-c2c(Cl)cnn2C)cn1)C1CCCCCC1` [Example 175, (S)—N-(2-((5-(4-chloro-1-methyl-1H-pyrazol-5-yl)pyridin-2-yl)amino)-1-cycloheptyl-2-oxoethyl)-3-ethylisoxazole-4-carboxamide], the IC50 under setting [1] was 0.0316 µM. In the case of `Cc1cncc(C)c1-c1ccc(NC(=O)[C@@H](NC(=O)c2ccnn2C)C(c2ccccc2)c2ccccc2)cc1F` [Example 14, (S)—N-(1-((4-(3,5-dimethylpyridin-4-yl)-3-fluorophenyl)amino)-1-oxo-3,3-diphenylpropan-2-yl)-1-methyl-1H-pyrazole-5-carboxamide], the IC50 under setting [2] was 0.0398 µM. Consider `Cc1cncc(C)c1-c1ccc(NC(=O)[C@@H](NC(=O)c2ccnn2C)C(c2ccccc2)c2ccccc2)nc1` [Example 73, (S)—N-(1-((3′,5′-dimethyl-[3,4′-bipyridin]-6-yl)amino)-1-oxo-3,3-diphenylpropan-2-yl)-1-methyl-1H-pyrazole-5-carboxamide], for which the IC50 under setting [2] is 0.0251 µM. As for `COc1c[n+]([O-])cc(F)c1-c1ccc(NC(=O)[C@@H](NC(=O)c2ccnn2C)C(c2ccccc2)c2ccccc2)cc1` [Example 28, (S)-3-fluoro-5-methoxy-4-(4-(2-(1-methyl-1H-pyrazole-5-carboxamido)-3,3-diphenylpropanamido)phenyl)pyridine 1-oxide], the IC50 under setting [2] is 0.00794 µM. The same measure, in the same setting: for `CNc1cnccc1-c1ccc(NC(=O)[C@@H](NC(=O)c2ccnn2C)C(c2ccccc2)c2ccccc2)cc1` [Example 7, (S)-1-methyl-N-(1-((4-(3-(methylamino)pyridin-4-yl)phenyl)amino)-1-oxo-3,3-diphenylpropan-2-yl)-1H-pyrazole-5-carboxamide] the value was 0.0126 µM; for `Cn1nccc1C(=O)N[C@H](C(=O)Nc1ccc(-c2cnc3ncccn23)cc1)C(c1ccccc1)c1ccccc1` [Example 41, (S)—N-(1-((4-(imidazo[1,2-a]pyrimidin-3-yl)phenyl)amino)-1-oxo-3,3-diphenylpropan-2-yl)-1-methyl-1H-pyrazole-5-carboxamide], 0.2 µM. Turning to `Cc1nn(C)c(-c2ccc(NC(=O)[C@@H](NC(=O)c3ccnn3C)C3CCCCCC3)nc2)c1C` [Example 195, (S)—N-(1-cycloheptyl-2-oxo-2-((5-(1,3,4-trimethyl-1H-pyrazol-5-yl)pyridin-2-yl)amino)ethyl)-1-methyl-1H-pyrazole-5-carboxamide], under setting [1], the IC50 is 0.501 µM. For the compound `Cc1noc(C)c1-c1ccc(NC(=O)[C@@H](NC(=O)c2ccnn2C(C)C)[C@H]2CC[C@H](C)CC2)cn1` [Example 206, N—((S)-2-((6-(3,5-dimethylisoxazol-4-yl)pyridin-3-yl)amino)-1-((1r,4S)-4-methylcyclohexyl)-2-oxoethyl)-1-isopropyl-1H-pyrazole-5-carboxamide], the IC50 under setting [1] was 0.126 µM. On the same count and under the same terms, for `COCc1noc(C)c1-c1ccc(NC(=O)[C@@H](NC(=O)c2ccnn2C)[C@H]2CC[C@H](C)CC2)nc1` [Example 142, N—((S)-2-((5-(3-(methoxymethyl)-5-methylisoxazol-4-yl)pyridin-2-yl)amino)-1-((1r,4S)-4-methylcyclohexyl)-2-oxoethyl)-1-methyl-1H-pyrazole-5-carboxamide] the value was 0.398 µM; for `Cc1cc(-c2ccc(NC(=O)[C@@H](NC(=O)c3ccnn3C)[C@H]3CC[C@H](C)CC3)nc2)c(C)cn1` [Example 153, N—((S)-2-((2′,5′-dimethyl-[3,4′-bipyridin]-6-yl)amino)-1-((1r,4S)-4-methylcyclohexyl)-2-oxoethyl)-1-methyl-1H-pyrazole-5-carboxamide], 0.398 µM. As to `Cn1nccc1C(=O)N[C@H](C(=O)Nc1ccc(-c2cn[nH]c(=O)c2)c(F)c1)C(c1ccccc1)c1ccccc1` [Example 70, (S)—N-(1-((3-fluoro-4-(6-oxo-1,6-dihydropyridazin-4-yl)phenyl)amino)-1-oxo-3,3-diphenylpropan-2-yl)-1-methyl-1H-pyrazole-5-carboxamide], the IC50 under setting [2] was 0.316 µM. `Cc1[nH]c(=O)ccc1-c1ccc(NC(=O)[C@@H](NC(=O)c2ccnn2C)C(c2ccccc2)c2ccccc2)cc1` [Example 11, (S)-1-methyl-N-(1-((4-(2-methyl-6-oxo-1,6-dihydropyridin-3-yl)phenyl)amino)-1-oxo-3,3-diphenylpropan-2-yl)-1H-pyrazole-5-carboxamide]: under setting [2], the IC50 is 0.0158 µM. Take `COc1cnccc1-c1ccc(NC(=O)[C@@H](NC(=O)c2ccnn2C)C(c2ccccc2)c2ccccc2)cc1` [Example 3, (S)—N-(1-((4-(3-methoxypyridin-4-yl)phenyl)amino)-1-oxo-3,3-diphenylpropan-2-yl)-1-methyl-1H-pyrazole-5-carboxamide]: the IC50 under setting [2] was 0.0126 µM. Consider `CCc1nocc1C(=O)N[C@H](C(=O)Nc1ccc(-c2c(C)noc2C)nc1)C1CCCCCC1` [Example 171, (S)—N-(1-cycloheptyl-2-((6-(3,5-dimethylisoxazol-4-yl)pyridin-3-yl)amino)-2-oxoethyl)-3-ethylisoxazole-4-carboxamide], for which the IC50 under setting [1] is 0.0794 µM. In the case of `Cc1n[nH]c(C)c1-c1ccc(NC(=O)C(NC(=O)c2ccnn2C)C2CCCCCCC2)cc1` (centres unmarked) [Example 104, N-(1-Cyclooctyl-2-((4-(3,5-dimethyl-1H-pyrazol-4-yl)phenyl)amino)-2-oxoethyl)-1-methyl-1H-pyrazole-5-carboxamide], the IC50 under setting [1] is 0.0794 µM. The same measure, in the same setting: for `Cc1c(-c2ccc(NC(=O)C(NC(=O)c3ccnn3C)C3CCCCCCC3)cc2)ccc(=O)n1C` (centres unmarked) [Example 107, N-(1-Cyclooctyl-2-((4-(1,2-dimethyl-6-oxo-1,6-dihydropyridin-3-yl)phenyl)amino)-2-oxoethyl)-1-methyl-1H-pyrazole-5-carboxamide] the value was 0.158 µM.

On to `CCn1nccc1C(=O)N[C@H](C(=O)Nc1ccc(-c2c(C)cnn2C)nc1)[C@H]1CC[C@H](C)CC1` [Example 154, N—((S)-2-((6-(1,4-dimethyl-1H-pyrazol-5-yl)pyridin-3-yl)amino)-1-((1r,4S)-4-methylcyclohexyl)-2-oxoethyl)-1-ethyl-1H-pyrazole-5-carboxamide], for which the IC50 under setting [1] is 0.251 µM. As to `Cc1nnn(C2CC2)c1-c1ccc(NC(=O)[C@@H](NC(=O)c2ccnn2C)C2CCCCCC2)nc1` [Example 161, (S)—N-(1-cycloheptyl-2-((5-(1-cyclopropyl-4-methyl-1H-1,2,3-triazol-5-yl)pyridin-2-yl)amino)-2-oxoethyl)-1-methyl-1H-pyrazole-5-carboxamide], the IC50 under setting [1] was 0.2 µM. As for `Cc1c(-c2ccc(NC(=O)[C@@H](NC(=O)c3ccnn3C)[C@H]3CC[C@H](C)CC3)cc2)ccc(=O)n1C` [Example 33, N—((S)-2-((4-(1,2-dimethyl-6-oxo-1,6-dihydropyridin-3-yl)phenyl)amino)-1-((1r,4S)-4-methylcyclohexyl)-2-oxoethyl)-1-methyl-1H-pyrazole-5-carboxamide], under setting [2], the IC50 was 0.0794 µM. Turning to `CCc1nocc1C(=O)N[C@H](C(=O)Nc1ccc(-c2c(C)noc2C)cn1)C1CCCCCC1` [Example 124, (S)—N-(1-Cycloheptyl-2-((5-(3,5-dimethylisoxazol-4-yl)pyridin-2-yl)amino)-2-oxoethyl)-3-ethylisoxazole-4-carboxamide], under setting [1], the IC50 was 0.0398 µM. As to `Cc1nnn(C)c1-c1ccc(NC(=O)[C@@H](NC(=O)c2ccnn2C)[C@H]2CC[C@H](C)CC2)nc1` [Example 125, N—((S)-2-((5-(1,4-Dimethyl-1H-1,2,3-triazol-5-yl)pyridin-2-yl)amino)-1-((1r,4S)-4-methylcyclohexyl)-2-oxoethyl)-1-methyl-1H-pyrazole-5-carboxamide], the “AlphaLISA pIC50” value under setting [1] is 6.8*. For the compound `Cc1cnn(C)c1-c1ccc(NC(=O)[C@@H](NC(=O)c2ccnn2C)C2CCCCC2)nc1` [Example 177, (S)—N-(1-cyclohexyl-2-((5-(1,4-dimethyl-1H-pyrazol-5-yl)pyridin-2-yl)amino)-2-oxoethyl)-1-methyl-1H-pyrazole-5-carboxamide], under setting [1], the IC50 was 0.2 µM.

Regarding `Cn1nccc1C(=O)N[C@H](C(=O)Nc1ccc(-c2cccc(=O)n2C)c(F)c1)C(c1ccccc1)c1ccccc1` [Example 71, (S)—N-(1-((3-fluoro-4-(1-methyl-6-oxo-1,6-dihydropyridin-2-yl)phenyl)amino)-1-oxo-3,3-diphenylpropan-2-yl)-1-methyl-1H-pyrazole-5-carboxamide], the IC50 under setting [2] was 0.0158 µM. On to `Cc1c(-c2c(F)cc(NC(=O)[C@@H](NC(=O)c3ccnn3C)C(c3ccccc3)c3ccccc3)cc2F)ccc(=O)n1C` [Example 29, (S)—N-(1-((4-(1,2-dimethyl-6-oxo-1,6-dihydropyridin-3-yl)-3,5-difluorophenyl)amino)-1-oxo-3,3-diphenylpropan-2-yl)-1-methyl-1H-pyrazole-5-carboxamide], for which the IC50 under setting [2] was 0.02 µM. For `Cc1noc(C)c1-c1ccc(NC(=O)[C@@H](NC(=O)c2ccnn2C)[C@H]2CC[C@H](C)CC2)cc1` [Example 96, N—((S)-2-((4-(3,5-Dimethylisoxazol-4-yl)phenyl)amino)-1-((1r,4S)-4-methylcyclohexyl)-2-oxoethyl)-1-methyl-1H-pyrazole-5-carboxamide], under setting [2], the IC50 is 0.0501 µM.
